Results: patent publication US10499642B2, “Isoxazoline-substituted benzamides and analogues as insecticides” (SYNGENTA PARTICIPATIONS AG, priority 2015, dated 2019)
Like-named read-outs stand apart in the source and are kept apart here.

Columns and labels:
Assay type in all cases: in vivo
Spodoptera littoralis = Spodoptera littoralis (Egyptian cotton leaf worm) cotton leaf disc test; details: foliar, 72 h, read-out: control (at least one of mortality, anti-feedant effect, and growth inhibition)
Outline: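 Five first-instar larvae per disc were placed on dried, sprayed cotton leaf discs held on agar. Test solutions were aqueous, made from 10′000 ppm DMSO stocks. At day 3, control was counted when mortality, feeding deterrence or growth inhibition exceeded the untreated discs.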

Thrips tabaci = Thrips tabaci (onion thrips) sunflower leaf disc test; details: foliar, 144 h
Experimental: Thrips tabaci (Onion Thrips):
(§1) Sunflower leaf discs were placed on agar in 24-well microtiter plates and sprayed with aqueous test solutions prepared from 10′000 ppm DMSO stock solutions. After drying the leaf discs were infested with a thrips population of mixed ages. The samples were assessed for mortality 6 days after infestation.

Tetranychus urticae = Tetranychus urticae (two-spotted spider mite) bean leaf disc test; details: foliar, 192 h
Experimental: Tetranychus urticae (Two-Spotted Spider Mite):
as §1, with “Bean” for “Sunflower”, “discs” for “discs were placed”, “were” for “and”, “mite” for “thrips”, “on mixed population (mobile stages) 8” for “6”

Diabrotica Balteata = assay: Diabrotica balteata (corn root worm) maize sprout test; details: 96 h, read-out: effect in at least one of the two categories (mortality or growth inhibition)
Outline: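 Scoring covered both mortality and growth inhibition relative to untreated controls, 4 days post-infestation. Test solutions at 200 ppm, diluted in water from 10′000 ppm DMSO stocks, were sprayed onto agar-held maize sprouts, which after drying received 6 to 10 L2 larvae each well.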

Myzus persicae = Myzus persicae (green peach aphid) sunflower leaf disc test; details: foliar, 144 h
Experimental: Myzus persicae (Green Peach Aphid):
Sunflower leaf discs were placed on agar in a 24-well microtiter plate and sprayed with test solutions at an application rate of 200 ppm. After drying, the leaf discs were infested with an aphid population of mixed ages. After an incubation period of 6 days after treatment, samples were checked for mortality. The following compounds gave at least 80% mortality of Myzus persicae: […]

Plutella xylostella = Plutella xylostella (diamond back moth) artificial diet test; details: 120 h, read-out: effect in at least one of the two categories (mortality or growth inhibition)
Outline: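 At a 200 ppm rate, test solutions were applied to artificial diet and allowed to dry before second-instar larvae were added. Five days later, larval mortality and growth inhibition were rated against untreated samples.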

Cc1cc(C2=NO[C@@](c3cc(Cl)c(F)c(Cl)c3)(C(F)(F)F)C2)ccc1C(=O)N(C=O)C1CC(C2CC2)=NO1 (stereo partly drawn) [Compound A031, N-(3-cyclopropyl-4,5-dihydroisoxazol-5-yl)-4-[(5S)-5-(3,5-dichloro-4-fluoro-phenyl)-5-(trifluoromethyl)-4H-isoxazol-3-yl]-N-formyl-2-methyl-benzamide]
≥ 80%: percent control (mortality, anti-feedant effect or growth inhibition) at 200 ppm (Spodoptera littoralis) | mortality at 200 ppm (Thrips tabaci) | mortality at 200 ppm (Tetranychus urticae) | percent effect (mortality or growth inhibition) at 200 ppm (Diabrotica Balteata) | mortality at 200 ppm (Myzus persicae) | percent effect (mortality or growth inhibition) at 200 ppm (Plutella xylostella)

COC1=NOC(NC(=O)c2ccc(C3=NO[C@@](c4cc(Cl)cc(C(F)(F)F)c4)(C(F)(F)F)C3)cc2Cl)C1 (stereo partly drawn) [Compound A065]
≥ 80%: percent control (mortality, anti-feedant effect or growth inhibition) at 200 ppm (Spodoptera littoralis) | mortality at 200 ppm (Thrips tabaci) | mortality at 200 ppm (Tetranychus urticae) | percent effect (mortality or growth inhibition) at 200 ppm (Diabrotica Balteata) | mortality at 200 ppm (Myzus persicae) | percent effect (mortality or growth inhibition) at 200 ppm (Plutella xylostella)

Cc1cc(C2=NO[C@@](c3cccc(C(F)(F)F)c3)(C(F)(F)F)C2)ccc1C(=O)NC1CC(Br)=NO1 (stereo partly drawn) [Compound A058]
≥ 80%: percent control (mortality, anti-feedant effect or growth inhibition) at 200 ppm (Spodoptera littoralis; application rate 200 ppm, cotton leaf discs, L1 larvae, 3 days after infestation) | mortality at 200 ppm (Thrips tabaci; application rate 200 ppm, sunflower leaf discs, population of mixed ages, 6 days after infestation, read-out: mortality) | mortality at 200 ppm (Tetranychus urticae; application rate 200 ppm, bean leaf discs, mixed population (mobile stages), 8 days after infestation, read-out: mortality) | percent effect (mortality or growth inhibition) at 200 ppm (Diabrotica Balteata; application rate 200 ppm, maize sprouts, L2 larvae, 4 days after infestation) | mortality at 200 ppm (Myzus persicae; application rate 200 ppm, sunflower leaf discs, population of mixed ages, 6 days after treatment, read-out: mortality) | percent effect (mortality or growth inhibition) at 200 ppm (Plutella xylostella; application rate 200 ppm, artificial diet, L2 larvae, 5 days after infestation)

Cc1cc(C2=NO[C@@](c3cc(Cl)c(Cl)c(Cl)c3)(C(F)(F)F)C2)ccc1C(=O)NC1CC(C#N)=NO1 (stereo partly drawn) [Compound A145, N-(3-cyano-4,5-dihydroisoxazol-5-yl)-2-methyl-4-[(5S)-5-(3,4,5-trichlorophenyl)-5-(trifluoromethyl)-4H-isoxazol-3-yl]benzamide]
≥ 80%: percent control (mortality, anti-feedant effect or growth inhibition) at 200 ppm (Spodoptera littoralis) | mortality at 200 ppm (Thrips tabaci) | mortality at 200 ppm (Tetranychus urticae) | percent effect (mortality or growth inhibition) at 200 ppm (Diabrotica Balteata) | mortality at 200 ppm (Myzus persicae) | percent effect (mortality or growth inhibition) at 200 ppm (Plutella xylostella)

CC1=NOC(N(C=O)C(=O)c2ccc(C3=NO[C@@](c4cc(Cl)cc(C(F)(F)F)c4)(C(F)(F)F)C3)cc2C)C1 (stereo partly drawn) [Compound A039, 4-[(5S)-5-[3-chloro-5-(trifluoromethyl)phenyl]-5-(trifluoromethyl)-4H-isoxazol-3-yl]-N-formyl-2-methyl-N-(3-methyl-4,5-dihydroisoxazol-5-yl)benzamide]
≥ 80%: percent control (mortality, anti-feedant effect or growth inhibition) at 200 ppm (Spodoptera littoralis) | mortality at 200 ppm (Thrips tabaci) | mortality at 200 ppm (Tetranychus urticae) | percent effect (mortality or growth inhibition) at 200 ppm (Diabrotica Balteata) | mortality at 200 ppm (Myzus persicae) | percent effect (mortality or growth inhibition) at 200 ppm (Plutella xylostella)

Cc1cc(C2=NO[C@@](c3cc(Cl)cc(Cl)c3)(C(F)(F)F)C2)ccc1C(=O)NC1CC(OCC(F)(F)F)=NO1 (stereo partly drawn) [Compound A130, 4-[(5S)-5-(3,5-dichlorophenyl)-5-(trifluoromethyl)-4H-isoxazol-3-yl]-2-methyl-N-[3-(2,2,2-trifluoroethoxy)-4,5-dihydroisoxazol-5-yl]benzamide]
≥ 80%: percent control (mortality, anti-feedant effect or growth inhibition) at 200 ppm (Spodoptera littoralis) | mortality at 200 ppm (Thrips tabaci) | mortality at 200 ppm (Tetranychus urticae) | percent effect (mortality or growth inhibition) at 200 ppm (Diabrotica Balteata) | mortality at 200 ppm (Myzus persicae) | percent effect (mortality or growth inhibition) at 200 ppm (Plutella xylostella)

O=C(NC1CC(Cl)=NO1)c1ccc(C2=NO[C@@](c3cc(Cl)c(Cl)c(Cl)c3)(C(F)(F)F)C2)cc1Cl (stereo partly drawn) [Compound A018, 2-chloro-N-(3-chloro-4,5-dihydroisoxazol-5-yl)-4-[(5S)-5-(3,4,5-trichlorophenyl)-5-(trifluoromethyl)-4H-isoxazol-3-yl]benzamide]
≥ 80%: percent control (mortality, anti-feedant effect or growth inhibition) at 200 ppm (Spodoptera littoralis) | mortality at 200 ppm (Thrips tabaci) | mortality at 200 ppm (Tetranychus urticae) | percent effect (mortality or growth inhibition) at 200 ppm (Diabrotica Balteata) | mortality at 200 ppm (Myzus persicae) | percent effect (mortality or growth inhibition) at 200 ppm (Plutella xylostella)

CCOC1=NOC(NC(=O)c2ccc(C3=NO[C@@](c4cc(Cl)cc(Cl)c4)(C(F)(F)F)C3)cc2Cl)C1 (stereo partly drawn) [Compound A063]
≥ 80%: percent control (mortality, anti-feedant effect or growth inhibition) at 200 ppm (Spodoptera littoralis) | mortality at 200 ppm (Thrips tabaci) | mortality at 200 ppm (Tetranychus urticae) | percent effect (mortality or growth inhibition) at 200 ppm (Diabrotica Balteata) | mortality at 200 ppm (Myzus persicae) | percent effect (mortality or growth inhibition) at 200 ppm (Plutella xylostella)

CC(=O)C1=NOC(NC(=O)c2ccc(C3=NO[C@@](c4cc(Cl)c(F)c(Cl)c4)(C(F)(F)F)C3)cc2C)C1 (stereo partly drawn) [Compound A015, N-(3-acetyl-4,5-dihydroisoxazol-5-yl)-4-[(5S)-5-(3,5-dichloro-4-fluoro-phenyl)-5-(trifluoromethyl)-4H-isoxazol-3-yl]-2-methyl-benzamide]
≥ 80%: percent control (mortality, anti-feedant effect or growth inhibition) at 200 ppm (Spodoptera littoralis) | mortality at 200 ppm (Thrips tabaci) | mortality at 200 ppm (Tetranychus urticae) | percent effect (mortality or growth inhibition) at 200 ppm (Diabrotica Balteata) | mortality at 200 ppm (Myzus persicae) | percent effect (mortality or growth inhibition) at 200 ppm (Plutella xylostella)

CC(C)=CCOC1=NOC(NC(=O)c2ccc(C3=NO[C@@](c4cc(Cl)c(F)c(Cl)c4)(C(F)(F)F)C3)cc2C)C1 (stereo partly drawn) [Compound A085]
≥ 80%: percent control (mortality, anti-feedant effect or growth inhibition) at 200 ppm (Spodoptera littoralis) | mortality at 200 ppm (Thrips tabaci) | mortality at 200 ppm (Tetranychus urticae) | percent effect (mortality or growth inhibition) at 200 ppm (Diabrotica Balteata) | mortality at 200 ppm (Myzus persicae) | percent effect (mortality or growth inhibition) at 200 ppm (Plutella xylostella)

Cc1cc(C2=NO[C@@](c3cc(Cl)c(F)c(Cl)c3)(C(F)(F)F)C2)ccc1C(=O)NC1CC(C2CC2)=NO1 (stereo partly drawn) [Compound A032, N-(3-cyclopropyl-4,5-dihydroisoxazol-5-yl)-4-[(5S)-5-(3,5-dichloro-4-fluoro-phenyl)-5-(trifluoromethyl)-4H-isoxazol-3-yl]-2-methyl-benzamide]
≥ 80%: percent control (mortality, anti-feedant effect or growth inhibition) at 200 ppm (Spodoptera littoralis) | mortality at 200 ppm (Thrips tabaci) | mortality at 200 ppm (Tetranychus urticae) | percent effect (mortality or growth inhibition) at 200 ppm (Diabrotica Balteata) | mortality at 200 ppm (Myzus persicae) | percent effect (mortality or growth inhibition) at 200 ppm (Plutella xylostella)

Cc1cc(C2=NO[C@@](c3cc(Cl)cc(Cl)c3)(C(F)(F)F)C2)ccc1C(=O)NC1CC(Br)=NO1 (stereo partly drawn) [Compound A055]
≥ 80%: percent control (mortality, anti-feedant effect or growth inhibition) at 200 ppm (Spodoptera littoralis) | mortality at 200 ppm (Thrips tabaci) | mortality at 200 ppm (Tetranychus urticae) | percent effect (mortality or growth inhibition) at 200 ppm (Diabrotica Balteata) | mortality at 200 ppm (Myzus persicae) | percent effect (mortality or growth inhibition) at 200 ppm (Plutella xylostella)

CCC1=NOC(N(C=O)C(=O)c2ccc(C3=NO[C@@](c4cc(Cl)cc(Cl)c4)(C(F)(F)F)C3)cc2C)C1 (stereo partly drawn) [Compound A139]
≥ 80%: percent control (mortality, anti-feedant effect or growth inhibition) at 200 ppm (Spodoptera littoralis) | mortality at 200 ppm (Thrips tabaci) | mortality at 200 ppm (Tetranychus urticae) | percent effect (mortality or growth inhibition) at 200 ppm (Diabrotica Balteata) | mortality at 200 ppm (Myzus persicae) | percent effect (mortality or growth inhibition) at 200 ppm (Plutella xylostella)

COC1=NOC(NC(=O)c2ccc(C3=NO[C@@](c4cc(Cl)cc(Cl)c4)(C(F)(F)F)C3)cc2Cl)C1 (stereo partly drawn) [Compound A062]
≥ 80%: percent control (mortality, anti-feedant effect or growth inhibition) at 200 ppm (Spodoptera littoralis) | mortality at 200 ppm (Thrips tabaci) | mortality at 200 ppm (Tetranychus urticae) | percent effect (mortality or growth inhibition) at 200 ppm (Diabrotica Balteata) | mortality at 200 ppm (Myzus persicae) | percent effect (mortality or growth inhibition) at 200 ppm (Plutella xylostella)

Cc1cc(C2=NO[C@@](c3cc(Cl)c(F)c(Cl)c3)(C(F)(F)F)C2)ccc1C(=O)N(C(=O)OC(C)(C)C)C1CC=NO1 (stereo partly drawn) [Compound A086, tert-butyl N-[4-[(5S)-5-(3,5-dichloro-4-fluoro-phenyl)-5-(trifluoromethyl)-4H-isoxazol-3-yl]-2-methyl-benzoyl]-N-(4,5-dihydroisoxazol-5-yl)carbamate]
≥ 80%: percent control (mortality, anti-feedant effect or growth inhibition) at 200 ppm (Spodoptera littoralis) | mortality at 200 ppm (Thrips tabaci) | mortality at 200 ppm (Tetranychus urticae) | percent effect (mortality or growth inhibition) at 200 ppm (Diabrotica Balteata) | mortality at 200 ppm (Myzus persicae) | percent effect (mortality or growth inhibition) at 200 ppm (Plutella xylostella)

Cc1cc(C2=NO[C@@](c3cc(Cl)c(F)c(Cl)c3)(C(F)(F)F)C2)ccc1C(=O)N(C=O)C1CC(C(F)(F)F)=NO1 (stereo partly drawn) [Compound A004, 4-[(5S)-5-(3,5-dichloro-4-fluoro-phenyl)-5-(trifluoromethyl)-4H-isoxazol-3-yl]-N-formyl-2-methyl-N-[3-(trifluoromethyl)-4,5-dihydroisoxazol-5-yl]benzamide]
≥ 80%: percent control (mortality, anti-feedant effect or growth inhibition) at 200 ppm (Spodoptera littoralis) | mortality at 200 ppm (Thrips tabaci) | mortality at 200 ppm (Tetranychus urticae) | percent effect (mortality or growth inhibition) at 200 ppm (Diabrotica Balteata) | mortality at 200 ppm (Myzus persicae) | percent effect (mortality or growth inhibition) at 200 ppm (Plutella xylostella)
